The results in this text go back to ChEMBL document CHEMBL1201862, “PubChem BioAssay data set” (2004).

Active and inactive are the calls of the source.

The target of data set [1] is T1, Short transient receptor potential channel 4 (Mus musculus, UniProt Q9QUQ5).
T1 sequence (Q9QUQ5 whole entry): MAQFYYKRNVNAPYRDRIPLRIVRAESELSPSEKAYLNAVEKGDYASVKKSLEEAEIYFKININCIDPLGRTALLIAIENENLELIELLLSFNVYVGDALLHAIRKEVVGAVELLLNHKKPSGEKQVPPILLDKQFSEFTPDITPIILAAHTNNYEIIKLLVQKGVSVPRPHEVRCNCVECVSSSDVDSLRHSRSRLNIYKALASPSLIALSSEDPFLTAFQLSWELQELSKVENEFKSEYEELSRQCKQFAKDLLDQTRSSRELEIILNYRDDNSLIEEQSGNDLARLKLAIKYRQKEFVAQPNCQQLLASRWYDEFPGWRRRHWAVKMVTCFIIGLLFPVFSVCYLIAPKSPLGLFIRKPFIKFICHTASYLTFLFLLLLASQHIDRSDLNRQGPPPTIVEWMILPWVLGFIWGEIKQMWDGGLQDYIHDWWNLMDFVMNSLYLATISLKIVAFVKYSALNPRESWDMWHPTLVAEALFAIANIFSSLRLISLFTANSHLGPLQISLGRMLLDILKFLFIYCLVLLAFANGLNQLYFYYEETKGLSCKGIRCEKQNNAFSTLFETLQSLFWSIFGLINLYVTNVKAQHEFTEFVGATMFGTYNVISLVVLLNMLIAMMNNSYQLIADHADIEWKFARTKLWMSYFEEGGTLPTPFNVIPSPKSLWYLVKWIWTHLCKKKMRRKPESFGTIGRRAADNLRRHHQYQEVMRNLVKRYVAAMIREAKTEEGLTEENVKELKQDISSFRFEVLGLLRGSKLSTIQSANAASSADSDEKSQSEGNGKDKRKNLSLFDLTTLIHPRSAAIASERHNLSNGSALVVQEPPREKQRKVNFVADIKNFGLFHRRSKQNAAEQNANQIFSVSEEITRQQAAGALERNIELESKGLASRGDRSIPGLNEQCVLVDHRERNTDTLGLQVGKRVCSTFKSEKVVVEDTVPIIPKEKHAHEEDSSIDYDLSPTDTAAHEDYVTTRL
The data set can be described thus: calcium entry via TRPC4 opening agents – cell-based, HEK293 TRPC4/mu-opioid, Fluo-4 calcium, dose response (AID 434937). It counts as functional.

The subject of data set [2] is Streptococcus sp. 'group A'. The experiment in a line: Streptococcus pyogenes SK(-)GAS viability under kanamycin – luminescence, BacTiterGlo, confirmation, counter-screen for streptokinase expression inhibitor project, dose response (AID 1900). Type of data set: functional, organism-based. For orientation: The purpose of a counterscreen is to sort out artefacts and off-target activity.

For the next data set, the system named is Streptococcus. The data set can be described thus: GAS UMAA2166 growth inhibition – luminescence, BacTiterGlo, counter-screen for streptokinase expression inhibitor project, dose response (AID 1915).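 Also: potency for reduction of bacterial viability or growth.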 It counts as functional, organism-based.
The target in a further data set is T2, Bcl-2-related protein A1 (Mus musculus, UniProt Q07440).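 Also: confirmatory dose–response counterscreen on Bfl-1, used to check hits from a UBC13 polyubiquitin inhibitor campaign.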
T2 sequence (Q07440 whole entry): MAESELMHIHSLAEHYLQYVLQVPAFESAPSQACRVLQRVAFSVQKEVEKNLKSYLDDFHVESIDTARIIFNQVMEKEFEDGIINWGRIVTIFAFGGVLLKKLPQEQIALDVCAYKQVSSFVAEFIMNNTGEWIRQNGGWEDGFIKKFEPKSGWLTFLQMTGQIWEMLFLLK
It counts as functional.

Data set [3] deals with T3, Ubiquitin-conjugating enzyme E2 N (Homo sapiens, UniProt P61088).
T3 sequence (P61088 whole entry): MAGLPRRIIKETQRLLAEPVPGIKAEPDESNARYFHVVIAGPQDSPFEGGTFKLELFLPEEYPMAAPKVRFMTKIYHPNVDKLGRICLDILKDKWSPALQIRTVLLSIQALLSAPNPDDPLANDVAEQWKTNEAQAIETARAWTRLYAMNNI
Type of data set: functional.

Data set [4] has as its target T3, Ubiquitin-conjugating enzyme E2 N. It counts as functional. The source holds these as a separate data set.
In the next data set the target is Beta-galactosidase (Escherichia coli, UniProt Q8VNN2). The experiment in a line: PubChem AID 485352. Type of data set: functional.
Beta-galactosidase, sequence (Q8VNN2 whole entry): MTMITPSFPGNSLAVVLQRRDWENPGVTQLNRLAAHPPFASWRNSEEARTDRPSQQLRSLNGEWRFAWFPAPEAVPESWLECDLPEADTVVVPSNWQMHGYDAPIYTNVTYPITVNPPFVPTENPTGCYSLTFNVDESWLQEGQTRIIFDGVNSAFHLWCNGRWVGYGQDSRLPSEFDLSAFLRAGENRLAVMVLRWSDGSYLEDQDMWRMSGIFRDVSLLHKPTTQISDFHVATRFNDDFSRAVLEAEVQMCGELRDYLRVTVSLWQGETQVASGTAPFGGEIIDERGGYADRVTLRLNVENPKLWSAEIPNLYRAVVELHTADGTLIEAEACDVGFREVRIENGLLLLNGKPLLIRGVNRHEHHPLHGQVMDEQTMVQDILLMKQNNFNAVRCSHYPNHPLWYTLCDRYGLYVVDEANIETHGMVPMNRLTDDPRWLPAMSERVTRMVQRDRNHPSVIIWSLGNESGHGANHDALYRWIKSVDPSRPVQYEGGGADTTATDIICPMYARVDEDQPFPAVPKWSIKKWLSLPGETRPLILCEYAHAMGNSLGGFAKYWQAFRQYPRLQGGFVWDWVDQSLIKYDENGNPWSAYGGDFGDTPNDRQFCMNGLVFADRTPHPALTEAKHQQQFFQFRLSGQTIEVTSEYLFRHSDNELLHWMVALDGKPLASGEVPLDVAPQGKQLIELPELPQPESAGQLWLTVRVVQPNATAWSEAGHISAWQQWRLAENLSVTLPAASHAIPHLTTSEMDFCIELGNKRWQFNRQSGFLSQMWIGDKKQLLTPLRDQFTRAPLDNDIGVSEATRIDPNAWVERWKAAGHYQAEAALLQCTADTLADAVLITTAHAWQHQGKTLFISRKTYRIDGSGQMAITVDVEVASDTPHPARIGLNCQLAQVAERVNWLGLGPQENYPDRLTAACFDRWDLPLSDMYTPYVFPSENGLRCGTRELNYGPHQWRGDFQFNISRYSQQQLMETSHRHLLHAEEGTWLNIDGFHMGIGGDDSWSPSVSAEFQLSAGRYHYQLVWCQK
For data set [5], the target named is T4, Type-1 angiotensin II receptor (Homo sapiens, UniProt P30556).
T4 sequence (P30556 whole entry): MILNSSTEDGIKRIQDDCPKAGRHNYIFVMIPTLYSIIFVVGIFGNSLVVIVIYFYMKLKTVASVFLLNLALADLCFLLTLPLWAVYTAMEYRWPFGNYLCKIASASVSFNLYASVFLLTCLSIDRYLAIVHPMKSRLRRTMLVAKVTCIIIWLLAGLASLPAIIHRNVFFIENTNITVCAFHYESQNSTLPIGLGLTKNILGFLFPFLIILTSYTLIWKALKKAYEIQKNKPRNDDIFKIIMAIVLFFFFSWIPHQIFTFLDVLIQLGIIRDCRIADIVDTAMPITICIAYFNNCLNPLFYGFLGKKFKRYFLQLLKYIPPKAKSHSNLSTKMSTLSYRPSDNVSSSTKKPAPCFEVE
The data set can be described thus: antagonism of angiotensin II type 1 receptor – cell-based, uHTS hits, selectivity assay for APJ receptor antagonist project, dose response (AID 463214).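 Also: antagonist potency against angiotensin II stimulated AT1 response.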 It counts as functional.

A further data set addresses Cytochrome P450 3A4 (Homo sapiens, UniProt P08684).
The next data set concerns the target T5, Streptokinase A (Streptococcus pyogenes serotype M1, UniProt P10520).
T5 sequence (P10520 whole entry): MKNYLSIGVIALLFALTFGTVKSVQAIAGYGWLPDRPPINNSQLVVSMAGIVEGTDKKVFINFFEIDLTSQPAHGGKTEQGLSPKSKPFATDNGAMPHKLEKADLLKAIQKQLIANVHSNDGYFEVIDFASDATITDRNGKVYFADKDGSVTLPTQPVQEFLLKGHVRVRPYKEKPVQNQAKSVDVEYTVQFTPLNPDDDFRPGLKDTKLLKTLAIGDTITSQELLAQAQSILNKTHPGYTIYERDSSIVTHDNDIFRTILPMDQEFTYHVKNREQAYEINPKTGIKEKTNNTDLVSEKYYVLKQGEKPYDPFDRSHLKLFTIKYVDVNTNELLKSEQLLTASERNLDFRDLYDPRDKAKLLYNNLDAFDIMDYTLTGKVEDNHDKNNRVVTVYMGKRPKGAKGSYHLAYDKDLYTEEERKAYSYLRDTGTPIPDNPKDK
The experiment in a line: viability-normalized secreted streptokinase activity reduction – plasminogen activation absorbance, OD405, dose response (AID 1914).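 Also: secreted streptokinase activity via plasminogen activation per viability signal from cell pellet.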 Type of data set: functional, Streptococcus pyogenes M1 GAS.

A short description of data set [6]: THP-1 cell cytotoxicity, dose response, cytotoxicity control for non-replicating M. tuberculosis project (AID 489025). Type of data set: functional.
Data set [7] can be described thus: HepG2 cell cytotoxicity, dose response, cytotoxicity control for non-replicating M. tuberculosis project (AID 489018). It counts as functional. Conditions: Mycobacterium tuberculosis.
The next data set in a line: cells. Type of data set: functional.
Another data set has as its target Cytochrome P450 2C9 (Homo sapiens, UniProt P11712).
The target in a further data set is Cytochrome P450 2C19 (Homo sapiens, UniProt P33261). The experiment in a line: Cytochrome panel assay with activity outcomes. Panel member name: p450-cyp2c19 Compounds with AC50 equal or less than 10 uM are considered active. It counts as functional. Conditions: read-out: AC50.
Cytochrome P450 2C19, sequence (P33261 whole entry): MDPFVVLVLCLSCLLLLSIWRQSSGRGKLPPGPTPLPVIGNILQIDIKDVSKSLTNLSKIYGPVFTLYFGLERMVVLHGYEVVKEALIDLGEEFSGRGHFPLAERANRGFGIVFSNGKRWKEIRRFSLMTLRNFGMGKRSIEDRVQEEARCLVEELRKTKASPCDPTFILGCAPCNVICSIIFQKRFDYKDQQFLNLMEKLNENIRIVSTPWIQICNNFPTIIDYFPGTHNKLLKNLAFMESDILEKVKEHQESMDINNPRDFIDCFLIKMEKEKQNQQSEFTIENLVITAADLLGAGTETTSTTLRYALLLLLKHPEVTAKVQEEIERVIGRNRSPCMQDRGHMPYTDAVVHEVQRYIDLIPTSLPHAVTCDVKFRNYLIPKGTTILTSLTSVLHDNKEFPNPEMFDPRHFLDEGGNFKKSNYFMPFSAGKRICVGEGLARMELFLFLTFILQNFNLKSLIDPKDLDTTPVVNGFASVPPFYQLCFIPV
The nature of data set [8]: microbe, parasite or virus in culture. Type of data set: functional. Conditions: Mycobacterium tuberculosis.
Data set [9] has as its target Voltage-dependent T-type calcium channel subunit alpha-1H (Homo sapiens, UniProt O95180). It counts as functional.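 Also: channel activity triggered by adding a high calcium stimulation buffer.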
Another data set concerns the target Genome polyprotein (dengue virus type 2, UniProt P29990). The data set can be described thus: flavivirus cap methylation enzyme inhibition – biochemical, confirmation dose response, primary screen (AID 588689). It counts as functional.
For data set [10], the target named is Dual specificity tyrosine-phosphorylation-regulated kinase 1A (Rattus norvegicus, UniProt Q63470). Type of data set: biochemical, Homo sapiens.
The next data set has as its target T6, Cytochrome P450 1A2 (Homo sapiens, UniProt P05177).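 Also: PubChem cytochrome P450 panel assay, CYP1A2 panel member.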
T6 sequence (P05177 whole entry): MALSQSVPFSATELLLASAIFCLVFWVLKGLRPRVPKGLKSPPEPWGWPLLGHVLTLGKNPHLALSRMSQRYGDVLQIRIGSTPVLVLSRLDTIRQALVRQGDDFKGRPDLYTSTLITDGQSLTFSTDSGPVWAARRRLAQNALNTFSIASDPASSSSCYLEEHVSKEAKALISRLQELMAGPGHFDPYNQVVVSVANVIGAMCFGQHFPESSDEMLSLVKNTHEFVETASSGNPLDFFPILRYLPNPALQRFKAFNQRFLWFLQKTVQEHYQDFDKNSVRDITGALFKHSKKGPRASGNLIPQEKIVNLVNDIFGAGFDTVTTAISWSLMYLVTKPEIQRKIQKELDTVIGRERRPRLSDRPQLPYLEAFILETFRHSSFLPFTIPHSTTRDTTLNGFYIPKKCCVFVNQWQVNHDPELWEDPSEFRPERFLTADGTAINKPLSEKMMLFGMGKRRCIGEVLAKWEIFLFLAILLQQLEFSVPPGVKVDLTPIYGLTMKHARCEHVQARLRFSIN

Broadly, the EC50 is the concentration giving half of the maximal effect. As usually defined, the IC50 is the midpoint of a concentration-inhibition curve. Usually AC50 stands for the midpoint of the concentration-response curve, whichever way the signal moves.

Cytochrome P450 3A4, sequence (P08684 whole entry): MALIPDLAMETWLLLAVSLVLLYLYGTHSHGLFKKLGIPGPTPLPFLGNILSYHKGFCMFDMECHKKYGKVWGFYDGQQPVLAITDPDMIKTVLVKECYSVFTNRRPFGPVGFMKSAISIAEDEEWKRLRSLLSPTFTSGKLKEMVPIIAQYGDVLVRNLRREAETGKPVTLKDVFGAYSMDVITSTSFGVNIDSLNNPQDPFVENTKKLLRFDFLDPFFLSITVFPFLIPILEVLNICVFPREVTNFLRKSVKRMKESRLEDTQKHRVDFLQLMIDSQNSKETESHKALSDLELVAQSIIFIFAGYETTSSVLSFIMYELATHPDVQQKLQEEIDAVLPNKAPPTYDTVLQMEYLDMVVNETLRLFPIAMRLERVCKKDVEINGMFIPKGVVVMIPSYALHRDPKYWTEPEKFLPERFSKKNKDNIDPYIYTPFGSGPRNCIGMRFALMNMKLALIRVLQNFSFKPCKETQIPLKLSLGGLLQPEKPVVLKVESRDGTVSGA
Cytochrome P450 2C9, sequence (P11712 whole entry): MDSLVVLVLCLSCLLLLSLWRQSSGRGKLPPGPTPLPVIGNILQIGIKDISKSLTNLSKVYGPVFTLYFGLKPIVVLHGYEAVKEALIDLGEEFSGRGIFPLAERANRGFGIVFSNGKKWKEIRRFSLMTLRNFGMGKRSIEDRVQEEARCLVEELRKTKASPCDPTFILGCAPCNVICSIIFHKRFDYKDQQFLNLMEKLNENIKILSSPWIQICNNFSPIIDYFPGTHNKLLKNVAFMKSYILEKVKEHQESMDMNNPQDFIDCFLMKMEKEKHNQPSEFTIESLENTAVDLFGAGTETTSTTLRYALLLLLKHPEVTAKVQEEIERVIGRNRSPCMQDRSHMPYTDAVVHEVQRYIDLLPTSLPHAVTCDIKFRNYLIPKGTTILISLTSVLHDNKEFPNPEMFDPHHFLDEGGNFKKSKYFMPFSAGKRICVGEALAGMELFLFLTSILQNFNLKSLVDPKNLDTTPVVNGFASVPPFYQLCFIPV
Genome polyprotein, sequence (P29990 2492-3391 limits assumed): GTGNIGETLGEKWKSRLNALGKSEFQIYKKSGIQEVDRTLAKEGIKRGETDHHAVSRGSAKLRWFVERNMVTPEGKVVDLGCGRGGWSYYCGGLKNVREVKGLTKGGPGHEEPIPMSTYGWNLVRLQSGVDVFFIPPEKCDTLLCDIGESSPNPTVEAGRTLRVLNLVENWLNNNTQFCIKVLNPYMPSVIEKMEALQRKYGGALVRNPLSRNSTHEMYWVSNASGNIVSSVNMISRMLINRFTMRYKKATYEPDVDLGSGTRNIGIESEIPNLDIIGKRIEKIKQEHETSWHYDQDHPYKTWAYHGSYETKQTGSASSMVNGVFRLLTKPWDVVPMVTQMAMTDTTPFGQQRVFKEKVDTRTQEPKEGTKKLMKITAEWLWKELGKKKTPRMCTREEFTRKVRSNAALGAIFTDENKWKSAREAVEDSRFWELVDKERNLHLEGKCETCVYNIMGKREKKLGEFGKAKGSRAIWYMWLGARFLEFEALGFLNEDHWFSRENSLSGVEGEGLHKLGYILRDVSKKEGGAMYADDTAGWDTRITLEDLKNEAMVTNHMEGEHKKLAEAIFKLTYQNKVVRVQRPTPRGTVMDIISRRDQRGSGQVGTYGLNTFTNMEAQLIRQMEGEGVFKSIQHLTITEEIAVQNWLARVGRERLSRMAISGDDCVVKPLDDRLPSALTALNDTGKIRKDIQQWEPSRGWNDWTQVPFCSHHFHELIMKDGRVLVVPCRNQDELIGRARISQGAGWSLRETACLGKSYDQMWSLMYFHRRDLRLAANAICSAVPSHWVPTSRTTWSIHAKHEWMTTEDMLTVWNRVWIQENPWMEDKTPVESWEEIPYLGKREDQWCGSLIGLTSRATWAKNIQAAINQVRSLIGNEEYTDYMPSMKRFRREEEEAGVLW

As for `CSc1ccc(C(=O)NCC(c2ccco2)N(C)C)cc1[N+](=O)[O-]` (configuration not stated), in [1], the EC50 is 0.0333 µM (active).

With `CC(C)c1ccc(OCC(=O)NNC(=S)NC(=O)C2CC2)cc1`, the EC50 in data set [2] was 0.85 µM (active); in the data set with Streptococcus it was 1.33 µM (active). Moreover, the IC50 on Bcl-2-related protein A1 is > 20 µM (inactive); in data set [3], 17.3 µM (active); in data set [4] it was 6.97 µM (active).

Turning to `COc1ccccc1NCC(=O)c1ccc(Cl)cc1`, the EC50 at Beta-galactosidase was > 40 µM (inactive). For the same compound, the IC50 in data set [5] was 35.3 µM (not active).

Regarding `CN1CCN(c2ncc3nc(-c4ccc(Cl)cc4)c(=O)n(C4CC4)c3n2)CC1`, at Cytochrome P450 3A4, the AC50 entry was “inconclusive”.

With `COc1ccc(C(CNC(=O)c2cccc(NS(=O)(=O)c3ccc(C)c(F)c3)c2)N(C)C)cc1` (configuration not stated), the EC50 in data set [1] is 5.31 µM (active).

As for `COc1ccc(C(CNc2nc(-c3cccnc3)nc3ccccc23)N(C)C)cc1` (configuration not stated), in [1], the EC50 was 0.473 µM (active).

On to `Cc1ccc(-c2oc3ncnc(N)c3c2-c2ccc(C)cc2)cc1`, for which the IC50 on Bcl-2-related protein A1 was > 20 µM (inactive); in data set [3] it was 12.5 µM (active); in data set [4], 4.6 µM (active).

Consider `O=C(N/N=C/c1ccc([N+](=O)[O-])o1)c1ccc(NS(=O)(=O)c2cccs2)cc1`, for which the results for the EC50 (in data set [2]; at Streptokinase A; in the data set with Streptococcus) were 1.24 µM (active), > 150 µM (not active) and 6.83 µM (active), respectively. Further, the CC50 in data set [6] was 15.9 µM (active); in data set [7], 12.9 µM (active). Besides, in “cells”, the IC50 was 7.09 µM (active).

Take `Cn1c(=O)c2c(ncn2Cc2cccc(Cl)c2)n(C)c1=O`: the IC50 at Bcl-2-related protein A1 is > 20 µM (inactive); in [3] it was 10.4 µM (active); in [4], 11.2 µM (active).

In the case of `COCCNC(=O)Cn1cnc2ccc(S(=O)(=O)N3CCC(C)CC3)cc2c1=O`, the AC50 is 10 µM (inconclusive) at Cytochrome P450 2C9 and “inconclusive” on Cytochrome P450 3A4.

On to `CCOc1cccc(OCCCNCCCOC)c1`, for which the AC50 on Cytochrome P450 2C19 was 28.2 µM (inconclusive); at Cytochrome P450 3A4, “inconclusive”.

On to `CN(C)C/C=C/C(=O)Nc1cccc(-c2c[nH]c3ncnc(Oc4ccc(NC(=O)CC(=O)Nc5ccc(F)cc5)cc4F)c23)c1`, for which the results for the IC50 (on Bcl-2-related protein A1; in [3]; in data set [4]) were > 20 µM (inactive), 3.5 µM (active) and 2.28 µM (active), respectively.

Turning to `O=C(NCC1CCN(c2ccc(S(=O)(=O)N3CCOCC3)cc2)CC1)c1ccc(Cl)cc1`, the CC50 in data set [8] was > 40 µM (active); in data set [6], > 40 µM (active); in data set [7], > 20 µM (active). The EC50 in data set [9] was 21.2 µM (active). For the same compound, in the data set “cells”, the IC50 is 31.3 µM (active).

In the case of `CN(C)C(CNC(C(=O)Nc1ccc(F)cc1)c1ccccc1)c1ccccc1` (configuration not stated), the EC50 in [1] is 0.596 µM (active).

On to `O=C1NC(=O)/C(=C/c2ccc(-c3cc(C(=O)O)ccc3Cl)o2)S1`, for which, on Genome polyprotein, the IC50 was 49.4 µM (active). Also, the AC50 in [10] is 2.56 µM (active).

For `O=C1C2C3C=CC(CC3)C2C(=O)N1/N=C/c1ccccc1O` (configuration not stated), the AC50 at Cytochrome P450 2C19 was 15.8 µM (inconclusive); at Cytochrome P450 1A2 it was 1.78 µM (inconclusive); on Cytochrome P450 2C9, 14.1 µM (inconclusive); on Cytochrome P450 3A4, “inconclusive”.

Take `CC(=O)Nc1ccc(C2(c3ccc(NC(C)=O)cc3)C(=O)Nc3ccccc32)cc1`: in [1], the EC50 was 1.5 µM (active).

For the compound `CSCCC(NC(=O)COc1ccccc1)C(=O)OCC(=O)c1cc2ccccc2o1` (configuration not stated), the EC50 at Beta-galactosidase is > 40 µM (inactive). Besides, the IC50 in [5] is 31.2 µM (not active).

On to `N#CC(C#N)=CC1=C2OC(c3ccccc3)=CC(c3ccccc3)=C2CCC1`, for which the EC50 on Beta-galactosidase was > 40 µM (inactive). Besides, in data set [5], the IC50 was > 40 µM (not active).
